Patent US20030199671A1, “Binding molecules for Fc-region polypeptides” (priority 2001, published 2003)
Where “and” joins values, the source holds several entries; their conditions need not be identical. Equal values may be shown once. Read-outs that look alike come from different tables or passages of the source.

Assays:
[1] = target: T1, human plasma IgG1 (Homo sapiens, UniProt P01857); test: Fluorescence anisotropy binding, Oregon Green labeled peptide
T1 construct: the individual human plasma IgG isoforms: IgG1, IgG2, IgG3, or IgG4; purchased Calbiochem; host or cells: human plasma
Procedure: (§1) Peptides were synthesized by BACHEM and then Oregon Green labeled and HPLC purified. Binding studies were performed using human plasma IgG isoforms: IgG1, IgG2, IgG3, and IgG4, obtained from Calbiochem.
(§2) Binding studies were carried out at either pH 4.0, 7.5, or 9.5, with or without salt in the following buffers:
(§3) 2) 10 mM Sodium Citrate, 500 mM Sodium Chloride, 0.01% Tween 20, pH 4.0;
(§4) 4) […], 500 mM Sodium Chloride, 0.01% Tween 20, pH 7.5;
(§5) 5) 10 mM Sodium Bicarbonate, 0.01% Tween 20, pH 9.5;
(§6) 6) 10 mM Sodium Bicarbonate, 500 mM Sodium Chloride, 0.01% Tween 20, pH 9.5; or […]

[2] = target: T2, human plasma IgG2 (Homo sapiens, UniProt P01859); test: as above
T2 construct: the individual human plasma IgG isoforms: IgG1, IgG2, IgG3, or IgG4; purchased Calbiochem; host or cells: human plasma
Procedure: as §1, §2, §3, §4, §5, §6

[3] = target: T3, human plasma IgG3 (Homo sapiens, UniProt P01860); test: as above
T3 construct: the individual human plasma IgG isoforms: IgG1, IgG2, IgG3, or IgG4; purchased Calbiochem; host or cells: human plasma
Procedure: as §1, §2, §3, §4, §5, §6

[4] = target: T4, human plasma IgG4 (Homo sapiens, UniProt P01861); test: as above
T4 construct: the individual human plasma IgG isoforms: IgG1, IgG2, IgG3, or IgG4; purchased Calbiochem; host or cells: human plasma
Procedure: as §1, §2, §3, §4, §5, §6

[5] = tested on: bovine IgG; format: binding
Summary of the method: (§7)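 Species specificity was assessed by static binding of unfractionated IgG to peptide resin in pH 7.2 phosphate or pH 7.5 Tris buffer with 0.01% Tween 20. Bound fraction was calculated from A280 of unbound target.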

[6] = tested on: goat IgG; format: binding
Summary of the method: as §7

[7] = target: T5, human IgG1 (Homo sapiens, UniProt P01857); format: binding
T5 construct: all human subtypes derived from myeloma patients; purchased Calbiochem 400120; host or cells: myeloma patients
Summary of the method: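 Static binding, peptide resin + IgG, 1-1.5 h RT with shaking, PBST pH 7.2 or TBST pH 7.5. Flow-through read at A280 vs buffer blank; % bound = control minus unbound. Elution at pH 8.5 bicarbonate and/or pH 4.0 citrate, 30-60 min.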

[8] = target: T6, human IgG2 (Homo sapiens, UniProt P01859); format: binding
T6 construct: all human subtypes derived from myeloma patients; purchased Calbiochem 400122; host or cells: myeloma patients
Summary of the method: (§8)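 Read-out is A280 of unbound IgG (1.4 mg/ml extinction coefficient), with percent bound derived against non-filtered or negative controls. Targets were incubated with immobilized peptides in PBST or TBST for 1-1.5 h at room temperature. Hydrolyzed Sepharose and immobilized Protein A serve as negative and positive controls.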

[9] = tested on: human IgG; format: binding
Summary of the method: as §7

[10] = tested on: mouse IgG; format: binding
Summary of the method: as §7

[11] = target: IgG3 (Homo sapiens, UniProt P01860); format: binding; parameters: all human subtypes derived from myeloma patients; purchased Calbiochem 400124; host or cells: myeloma patients
Procedure: In addition, the following targets, all unfractionated IgGs, were also evaluated with selected immobilized peptides for species specificity characterization in a similar format: human IgG, goat IgG, bovine IgG, and mouse IgG (Sigma, product nos. I4506, I5256, I5506, and I15381, respectively). In addition, 10 μl aliquots of hydrolyzed NHS-activated Sepharose 4 Fast Flow (Amersham Pharmacia Biotech, product no. 17-0906-01) and immobilized recombinant Protein A (RepliGen Corp., product no. IPA-400) were also assayed as negative and positive controls. IgG targets were diluted into 10 mM phosphate buffer containing 150 mM NaCl and 0.01% Tween 20, pH 7.2 (PBST) or 50 mM Tris buffer containing, 150 mM NaCl and 0.01% Tween-20, pH 7.5 (TBST). Batch (static) binding and elution studies were conducted in a 96-well assay filterplate (Millipore MultiScreen-HV, with 0.45 μm Durapore membrane, product no. MAHVN4510). The target was allowed to incubate with the resin for 1-1.5 hours with shaking at room temperature. Unbound target was collected by centrifugation of samples from the assay plate directly into a low-UV absorbing 96-well collection plate (Costar, product no. 3635 or Greiner, product no. 655801). The unbound target was then quantitated by reading the absorbance at 280 nm (normalized to 1 cm pathlength, 1.4 mg/ml A280 extinction coefficient) of the collection plate on a microplate spectrophotometer (Molecular Devices Corp., SPECTRAmax PLUS) against a buffer blank.
The percentage bound target was determined by subtracting the mass determined as unbound from the corresponding condition's control values (control non-filtered added directly to the collection plate and/or the negative control). The assay plate was washed (3×) with 200 μl of binding buffer by vacuum filtration followed by addition of 100 μl of various elution conditions (e.g.: 0.1 M sodium bicarbonate buffer, pH 8.5 and/or 0.1 M sodium citrate buffer, pH 4.0). After a 30-60 minute incubation with shaking at room temperature, the eluted target was collected by centrifugation of the assay plate into another collection plate and quantitated in a similar manner. Percent elution of total load was then determined to characterize elution recovery efficiency under various conditions. The assay plate was then washed (3×) with 200 μl of binding buffer by vacuum filtration followed by addition of a resin cleaning condition (e.g., 0.1M CAPS buffer (3-[Cyclohexylamino]-1-propane-sulfonic acid), pH 11.5, to regenerate the resin for re-use. Percentage mass balance determination was calculated to be 90-100% on average.

[12] = target: IgG4 (Homo sapiens, UniProt P01861); format: binding; parameters: all human subtypes derived from myeloma patients; purchased Calbiochem 400126; host or cells: myeloma patients
Summary of the method: as §8

[13] = Table 9, immobilized peptide, 5.0 mg/ml resin load
[14] = Table 14, average ligand density 1.8 μM/ml
[15] = Table 13, average ligand density 1.8 μM/ml

T3 sequence (P01860 1-377 isoform P01860-1): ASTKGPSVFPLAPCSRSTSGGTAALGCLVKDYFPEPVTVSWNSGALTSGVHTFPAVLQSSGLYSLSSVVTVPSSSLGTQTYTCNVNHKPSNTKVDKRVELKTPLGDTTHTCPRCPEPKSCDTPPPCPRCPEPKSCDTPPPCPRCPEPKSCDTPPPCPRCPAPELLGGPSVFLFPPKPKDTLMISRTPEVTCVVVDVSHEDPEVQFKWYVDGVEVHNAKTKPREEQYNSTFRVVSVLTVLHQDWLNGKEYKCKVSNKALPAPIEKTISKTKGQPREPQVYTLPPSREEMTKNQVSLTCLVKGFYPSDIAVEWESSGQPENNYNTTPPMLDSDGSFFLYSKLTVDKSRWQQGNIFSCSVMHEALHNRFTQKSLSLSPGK
IgG3, sequence (P01860 1-377 isoform P01860-1): as above
T5 sequence (P01857 1-330 isoform P01857-1): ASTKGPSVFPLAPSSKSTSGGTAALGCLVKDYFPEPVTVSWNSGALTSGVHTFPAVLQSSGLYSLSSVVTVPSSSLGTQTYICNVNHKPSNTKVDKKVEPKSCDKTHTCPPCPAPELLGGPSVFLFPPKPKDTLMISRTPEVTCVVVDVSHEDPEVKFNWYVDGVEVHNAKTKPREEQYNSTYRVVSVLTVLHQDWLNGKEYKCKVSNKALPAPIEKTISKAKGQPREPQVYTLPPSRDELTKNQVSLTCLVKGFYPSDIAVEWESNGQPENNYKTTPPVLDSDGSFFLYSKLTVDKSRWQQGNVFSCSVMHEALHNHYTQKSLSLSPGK
T1 sequence (P01857 1-330 isoform P01857-1): as above
T6 sequence (P01859 1-326 isoform P01859-1): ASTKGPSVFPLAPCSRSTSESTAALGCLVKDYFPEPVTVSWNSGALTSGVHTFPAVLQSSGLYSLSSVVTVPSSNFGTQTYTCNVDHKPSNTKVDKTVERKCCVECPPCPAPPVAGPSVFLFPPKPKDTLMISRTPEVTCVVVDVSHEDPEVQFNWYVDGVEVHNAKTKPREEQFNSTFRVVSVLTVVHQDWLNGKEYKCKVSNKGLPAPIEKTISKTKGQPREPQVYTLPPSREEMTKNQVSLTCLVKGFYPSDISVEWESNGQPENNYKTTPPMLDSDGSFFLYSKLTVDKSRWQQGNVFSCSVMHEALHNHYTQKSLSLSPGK
T2 sequence (P01859 1-326 isoform P01859-1): as above
T4 sequence (P01861 1-327 isoform P01861-1): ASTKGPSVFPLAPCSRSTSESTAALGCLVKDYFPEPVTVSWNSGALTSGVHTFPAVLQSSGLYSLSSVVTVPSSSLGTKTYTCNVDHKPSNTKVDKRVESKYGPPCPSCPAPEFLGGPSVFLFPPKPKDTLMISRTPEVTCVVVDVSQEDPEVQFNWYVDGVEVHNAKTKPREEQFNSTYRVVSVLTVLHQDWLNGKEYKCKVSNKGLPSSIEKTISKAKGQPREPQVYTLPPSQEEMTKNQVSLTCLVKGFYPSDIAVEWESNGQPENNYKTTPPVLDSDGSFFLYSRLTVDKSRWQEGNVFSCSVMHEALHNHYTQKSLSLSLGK
IgG4, sequence (P01861 1-327 isoform P01861-1): as above

Compound: CC(=O)N[C@@H](C)C(=O)NCC(=O)N[C@H](C(=O)N[C@@H](Cc1ccc(O)cc1)C(=O)N[C@@H](Cc1c[nH]c2ccccc12)C(=O)N[C@H]1CSSC[C@@H](C(=O)N[C@@H](CC(=O)O)C(=O)N2CCC[C@H]2C(=O)N[C@@H](C)C(=O)N2CCC[C@H]2C(=O)NCC(=O)N2CCC[C@H]2C(=O)N[C@@H](CCC(=O)O)C(=O)NCC(=O)NCC(=O)NCC(=O)N[C@@H](CCCCN)C(N)=O)NC(=O)[C@@H]2CCCN2C(=O)[C@H](CC(C)C)NC(=O)[C@H](CCC(=O)O)NC(=O)[C@H](Cc2c[nH]c3ccccc23)NC(=O)[C@H](Cc2ccccc2)NC(=O)[C@H]([C@@H](C)O)NC1=O)[C@@H](C)O [DX404]
- Kd ([1]; 10 nM Tris-HCl, 500 mM Sodium Chloride, pH 7.5, read-out: KD (μM) IgG1 pH 7.5 + salt): > 10 µM
- Kd ([1]; 10 mM Sodium Bicarbonate, 500 mM Sodium Chloride, pH 9.5, read-out: KD (μM) IgG1 pH 9.5 + salt): > 10 µM
- Kd ([1]; 10 mM Sodium Bicarbonate, pH 9.5, read-out: KD (μM) IgG1 pH 9.5 − salt): > 10 µM
- Kd ([1]; 10 mM Sodium Citrate, 500 mM Sodium Chloride, pH 4.0, read-out: KD (μM) IgG1 pH 4.0 + salt): ~2 µM and 2 µM
- Kd ([1]; 10 mM Sodium Citrate, pH 4.0, read-out: KD (μM) IgG1 pH 4.0 − salt): ~2 µM
- Kd ([2]; 10 nM Tris-HCl, 500 mM Sodium Chloride, pH 7.5, read-out: KD (μM) IgG2 pH 7.5 + salt): > 10 µM
- Kd ([2]; 10 mM Sodium Bicarbonate, 500 mM Sodium Chloride, pH 9.5, read-out: KD (μM) IgG2 pH 9.5 + salt): > 10 µM
- Kd ([2]; 10 mM Sodium Bicarbonate, pH 9.5, read-out: KD (μM) IgG2 pH 9.5 − salt): > 10 µM
- Kd ([2]; 10 mM Sodium Citrate, 500 mM Sodium Chloride, pH 4.0, read-out: KD (μM) IgG2 pH 4.0 + salt): ~2 µM and 2 µM
- Kd ([2]; 10 mM Sodium Citrate, pH 4.0, read-out: KD (μM) IgG2 pH 4.0 − salt): ~2 µM
- Kd ([3]; 10 mM Sodium Bicarbonate, 500 mM Sodium Chloride, pH 9.5, read-out: KD (μM) IgG3 pH 9.5 + salt): > 10 µM
- Kd ([3]; 10 mM Sodium Bicarbonate, pH 9.5, read-out: KD (μM) IgG3 pH 9.5 − salt): > 10 µM
- Kd ([3]; 10 mM Sodium Citrate, 500 mM Sodium Chloride, pH 4.0, read-out: KD (μM) IgG3 pH 4.0 + salt): 0.2 µM
- Kd ([3]; 10 mM Sodium Citrate, pH 4.0, read-out: KD (μM) IgG3 pH 4.0 − salt): ~0.01 µM and 0.01 µM
- Kd ([4]; 10 nM Tris-HCl, 500 mM Sodium Chloride, pH 7.5, read-out: KD (μM) IgG4 pH 7.5 + salt): > 10 µM
- Kd ([4]; 10 mM Sodium Bicarbonate, 500 mM Sodium Chloride, pH 9.5, read-out: KD (μM) IgG4 pH 9.5 + salt): > 10 µM
- Kd ([4]; 10 mM Sodium Bicarbonate, pH 9.5, read-out: KD (μM) IgG4 pH 9.5 − salt): > 10 µM
- Kd ([4]; 10 mM Sodium Citrate, 500 mM Sodium Chloride, pH 4.0, read-out: KD (μM) IgG4 pH 4.0 + salt): > 10 µM
- Kd ([4]; 10 mM Sodium Citrate, pH 4.0, read-out: KD (μM) IgG4 pH 4.0 − salt): > 10 µM
- Kd ([4]; 10 mM Tris-HCl, pH 7.5, read-out: KD (μM) IgG4 pH 7.5 − salt): > 10 µM
- % IgG Capture - Batch Binding, Bovine IgG ([5]; Table 11, unfractionated IgG): 0%
- % IgG Capture - Batch Binding, Goat IgG ([6]; Table 11, unfractionated IgG): 0%
- % IgG Capture - Batch Binding, Human IgG1 [7, 13]: 38%
- % IgG Capture - Batch Binding, Human IgG2 [8, 13]: 11%
- % IgG Capture - Batch Binding, Human IgG ([9]; Table 11, unfractionated IgG): 30%
- % IgG Capture - Batch Binding, Mouse IgG ([10]; Table 11, unfractionated IgG): 2%
- % IgG Capture - Batch Binding, Human IgG3 [11, 13]: 74%
- % IgG Capture - Batch Binding, Human IgG4 [12, 13]: 10%

Compound: Ac-GDNPMCWKKSWWEDAYCINHGTPGPEGGGK-NH2 (not fully specified (bridges); printed as Ac-GDNPMCWKKSWWEDAYCINHGTPGPEGGGK-NH2; cysteine pairing not given here) [DX596]
- % IgG Capture - Batch Binding, Bovine IgG [5, 14]: 5%
- % IgG Capture - Batch Binding, Goat IgG [6, 14]: 8%
- hIgG1 elution pH 2.5 (% of Total Load) ([7]; Table 13): 66%
- hIgG1 elution pH 3.5 (% of Total Load) ([7]; Table 13): 78%
- hIgG1 elution pH 4.5 (% of Total Load) ([7]; Table 13): 61%
- hIgG1 elution pH 5.5 (% of Total Load) ([7]; Table 13): 3%
- hIgG1 elution pH 9.0 (% of Total Load) ([7]; Table 13): 62%
- hIgG1 elution pH 9.5 (% of Total Load) ([7]; Table 13): 58%
- hIgG1 Bound (% of Total Load) [7, 15]: 87%
- hIgG2 elution pH 2.5 (% of Total Load) ([8]; Table 13): 71%
- hIgG2 elution pH 3.5 (% of Total Load) ([8]; Table 13): 92%
- hIgG2 elution pH 4.5 (% of Total Load) ([8]; Table 13): 44%
- hIgG2 elution pH 5.5 (% of Total Load) ([8]; Table 13): 3%
- hIgG2 elution pH 9.0 (% of Total Load) ([8]; Table 13): 58%
- hIgG2 elution pH 9.5 (% of Total Load) ([8]; Table 13): 64%
- hIgG2 Bound (% of Total Load) [8, 15]: 81%
- % IgG Capture - Batch Binding, Human IgG [9, 14]: 72%
- % IgG Capture - Batch Binding, Mouse IgG [10, 14]: 5%
- hIgG3 elution pH 2.5 (% of Total Load) ([11]; Table 13): 0%
- hIgG3 elution pH 3.5 (% of Total Load) ([11]; Table 13): 0%
- hIgG3 elution pH 4.5 (% of Total Load) ([11]; Table 13): 0%
- hIgG3 elution pH 5.5 (% of Total Load) ([11]; Table 13): 0%
- hIgG3 elution pH 9.0 (% of Total Load) ([11]; Table 13): 0%
- hIgG3 elution pH 9.5 (% of Total Load) ([11]; Table 13): 0%
- hIgG3 Bound (% of Total Load) [11, 15]: 0%
- hIgG4 elution pH 2.5 (% of Total Load) ([12]; Table 13): 44%
- hIgG4 elution pH 3.5 (% of Total Load) ([12]; Table 13): 61%
- hIgG4 elution pH 4.5 (% of Total Load) ([12]; Table 13): 17%
- hIgG4 elution pH 5.5 (% of Total Load) ([12]; Table 13): 2%
- hIgG4 elution pH 9.0 (% of Total Load) ([12]; Table 13): 55%
- hIgG4 elution pH 9.5 (% of Total Load) ([12]; Table 13): 67%
- hIgG4 Bound (% of Total Load) [12, 15]: 65%
